Test results published in the NIST ThermoML archive (doi:10.1021/acs.jced.5b00662).
“And” between values parts separate entries of the source, which are not always exact repeats. Identical values can stand only once. ± gives the expanded uncertainty stated by the source.

Columns and labels:
[1] = 101.33 kPa, Liquid; for speed of sound: Sing-around technique in a fixed-path interferometer; for mass density: Vibrating tube method; for viscosity: Concentric cylinders viscometry
[2] = refractive index (Na D-line) (dimensionless); conditions: 101.33 kPa, Liquid, Standard Abbe refractometry

COCCOCCOCCOC [2,5,8,11-tetraoxadodecane]
Conditions	mass density, [1]	refractive index, [2]	speed of sound, [1] [m/s]	viscosity, [1] [mPa·s]
283.15 K	994.1 ± 2 kg/m3	1.42712 ± 0.00061	1401.4 ± 1.6	–
288.15 K	990.8 ± 2 kg/m3 and 989.4 ± 2 kg/m3	1.42498 ± 0.00061	1381.4 ± 1.6	2.414 ± 0.098
293.15 K	986 ± 2 kg/m3 and 984.6 ± 2 kg/m3	1.42284 ± 0.00061	1361.6 ± 1.5	2.162 ± 0.088
298.15 K	979.9 ± 2 kg/m3 and 981.5 ± 2 kg/m3	1.42071 ± 0.00061	1342.1 ± 1.5	1.956 ± 0.079
303.15 K	975.1 ± 2 kg/m3 and 976.7 ± 2 kg/m3	1.41862 ± 0.00061	1322.8 ± 1.5	1.777 ± 0.072
308.15 K	970.4 ± 2 kg/m3 and 971.9 ± 2 kg/m3	–	1303.6 ± 1.5	1.623 ± 0.066
313.15 K	965.6 ± 2 kg/m3 and 967.2 ± 2 kg/m3	1.41434 ± 0.00061	1284.4 ± 1.5	1.439 ± 0.059
318.15 K	962.4 ± 2 kg/m3	–	–	1.373 ± 0.056
323.15 K	956.1 ± 2 kg/m3 and 957.7 ± 2 kg/m3	1.41005 ± 0.00061	1246.9 ± 1.5	1.27 ± 0.052
328.15 K	952.9 ± 2 kg/m3	–	–	1.179 ± 0.048
333.15 K	946.5 ± 2 kg/m3 and 948.1 ± 2 kg/m3	1.40579 ± 0.00061	1209.9 ± 1.5	1.064 ± 0.043
338.15 K	943.3 ± 2 kg/m3	–	–	1.026 ± 0.042
343.15 K	938.6 ± 2 kg/m3 and 936.9 ± 2 kg/m3	1.40153 ± 0.00061	1174 ± 1.5	0.962 ± 0.039
348.15 K	933.8 ± 2 kg/m3	–	–	0.903 ± 0.037
353.15 K	929 ± 2 kg/m3	1.39723 ± 0.00061	–	0.814 ± 0.033
358.15 K	924.2 ± 2 kg/m3	–	–	0.801 ± 0.033
363.15 K	919.4 ± 2 kg/m3	–	–	0.756 ± 0.031
368.15 K	914.5 ± 2 kg/m3	–	–	0.715 ± 0.029
373.15 K	909.7 ± 2 kg/m3	–	–	0.65 ± 0.027

CCOCCOCCOCC [diethylene glycol diethyl ether]
Conditions	mass density, [1]	refractive index, [2]	speed of sound, [1] [m/s]	viscosity, [1] [mPa·s]
283.15 K	917 ± 4.1 kg/m3	1.41658 ± 0.0007	1303.4 ± 2.3	–
288.15 K	914.4 ± 4.1 kg/m3 and 912.2 ± 4.1 kg/m3	1.41428 ± 0.0007	1283.2 ± 2.3	1.483 ± 0.062
293.15 K	909.6 ± 4.1 kg/m3 and 907.4 ± 4.1 kg/m3	1.41202 ± 0.0007	1263.1 ± 2.3	1.353 ± 0.056
298.15 K	902.6 ± 4.1 kg/m3 and 904.7 ± 4.1 kg/m3	1.40978 ± 0.0007	1243.3 ± 2.3	1.254 ± 0.052
303.15 K	897.7 ± 4.1 kg/m3 and 899.8 ± 4.1 kg/m3	1.40749 ± 0.0007	1223.4 ± 2.3	1.156 ± 0.048
308.15 K	892.9 ± 4.1 kg/m3 and 895 ± 4.1 kg/m3	–	1203.9 ± 2.3	1.067 ± 0.044
313.15 K	888.1 ± 4.1 kg/m3 and 890.1 ± 4.1 kg/m3	1.40296 ± 0.0007	1184.1 ± 2.3	0.9874 ± 0.041
318.15 K	885.3 ± 4.1 kg/m3	–	–	0.916 ± 0.038
323.15 K	878.4 ± 4.1 kg/m3 and 880.4 ± 4.1 kg/m3	1.39838 ± 0.0007	1145.1 ± 2.3	0.852 ± 0.036
328.15 K	875.6 ± 4.1 kg/m3	–	–	0.795 ± 0.033
333.15 K	868.7 ± 4 kg/m3 and 870.7 ± 4.1 kg/m3	1.39382 ± 0.0007	1107.9 ± 2.3	0.744 ± 0.031
338.15 K	865.9 ± 4 kg/m3	–	–	0.699 ± 0.029
343.15 K	861 ± 4 kg/m3 and 858.9 ± 4 kg/m3	1.38929 ± 0.0007	1071.6 ± 2.3	0.658 ± 0.028
348.15 K	856.1 ± 4 kg/m3	–	–	0.621 ± 0.026
353.15 K	851.2 ± 4 kg/m3	1.38474 ± 0.0007	–	0.587 ± 0.025
358.15 K	846.3 ± 4 kg/m3	–	–	0.556 ± 0.023
363.15 K	841.4 ± 4 kg/m3	–	–	0.526 ± 0.022
368.15 K	836.5 ± 4 kg/m3	–	–	0.498 ± 0.021
373.15 K	831.6 ± 4 kg/m3	–	–	0.47 ± 0.02

OCCOCCOCCO [triethylene glycol]
Conditions	mass density, [1]	refractive index, [2]	speed of sound, [1] [m/s]	viscosity, [1] [mPa·s]
283.15 K	1131.3 ± 2 kg/m3	1.45944 ± 0.00061	1658.7 ± 1.6	–
288.15 K	1128.6 ± 2 kg/m3 and 1127.4 ± 2 kg/m3	1.45774 ± 0.00061	1642.8 ± 1.6	63.57 ± 2.6
293.15 K	1124.6 ± 2 kg/m3 and 1123.5 ± 2 kg/m3	1.4561 ± 0.00061	1627.2 ± 1.6	48.05 ± 1.9
298.15 K	1119.7 ± 2 kg/m3 and 1120.7 ± 2 kg/m3	1.45447 ± 0.00061	1611.5 ± 1.6	37.27 ± 1.5
303.15 K	1115.8 ± 2 kg/m3 and 1116.8 ± 2 kg/m3	1.45283 ± 0.00061	1596.2 ± 1.6	29.41 ± 1.2
308.15 K	1111.9 ± 2 kg/m3 and 1112.9 ± 2 kg/m3	–	1581.1 ± 1.6	23.6 ± 0.95
313.15 K	1108 ± 2 kg/m3 and 1109 ± 2 kg/m3	1.44955 ± 0.00061	1566 ± 1.6	19.16 ± 0.78
318.15 K	1105.1 ± 2 kg/m3	–	–	15.86 ± 0.64
323.15 K	1100.2 ± 2 kg/m3 and 1101.2 ± 2 kg/m3	1.44626 ± 0.00061	1536.3 ± 1.6	13.25 ± 0.54
328.15 K	1097.3 ± 2 kg/m3	–	–	11.19 ± 0.45
333.15 K	1092.4 ± 2 kg/m3 and 1093.4 ± 2 kg/m3	1.44293 ± 0.00061	1506.8 ± 1.6	9.528 ± 0.38
338.15 K	1089.5 ± 2 kg/m3	–	–	8.221 ± 0.33
343.15 K	1085.6 ± 2 kg/m3 and 1084.5 ± 2 kg/m3	1.43956 ± 0.00061	1477.5 ± 1.6	7.137 ± 0.29
348.15 K	1081.7 ± 2 kg/m3	–	–	6.243 ± 0.25
353.15 K	1077.8 ± 2 kg/m3	1.43622 ± 0.00061	–	5.487 ± 0.22
358.15 K	1073.8 ± 2 kg/m3	–	–	4.874 ± 0.2
363.15 K	1069.8 ± 2 kg/m3	–	–	4.346 ± 0.18
368.15 K	1065.9 ± 2 kg/m3	–	–	3.896 ± 0.16
373.15 K	1061.9 ± 2 kg/m3	–	–	3.515 ± 0.14

OCCOCCO [diethylene glycol]
Conditions	mass density, [1]	refractive index, [2]	speed of sound, [1] [m/s]	viscosity, [1] [mPa·s]
283.15 K	1123.3 ± 2 kg/m3	1.45019 ± 0.00061	1615.9 ± 1.6	–
288.15 K	1121.4 ± 2 kg/m3 and 1119.8 ± 2 kg/m3	1.4486 ± 0.00061	1603.6 ± 1.6	47.14 ± 1.9
293.15 K	1117.8 ± 2 kg/m3 and 1116.2 ± 2 kg/m3	1.44702 ± 0.00061	1591.4 ± 1.6	36.02 ± 1.5
298.15 K	1112.7 ± 2 kg/m3 and 1114.2 ± 2 kg/m3	1.4454 ± 0.00061	1579.2 ± 1.6	28.23 ± 1.1
303.15 K	1109.1 ± 2 kg/m3 and 1110.6 ± 2 kg/m3	1.44379 ± 0.00061	1566.9 ± 1.6	22.48 ± 0.91
308.15 K	1105.5 ± 2 kg/m3 and 1107 ± 2 kg/m3	–	1554.9 ± 1.6	18.18 ± 0.74
313.15 K	1101.9 ± 2 kg/m3 and 1103.4 ± 2 kg/m3	1.44068 ± 0.00061	1542.8 ± 1.6	14.85 ± 0.6
318.15 K	1099.7 ± 2 kg/m3	–	–	12.4 ± 0.5
323.15 K	1094.7 ± 2 kg/m3 and 1096.1 ± 2 kg/m3	1.43745 ± 0.00061	1518.8 ± 1.6	10.42 ± 0.42
328.15 K	1092.5 ± 2 kg/m3	–	–	8.849 ± 0.36
333.15 K	1087.4 ± 2 kg/m3 and 1088.8 ± 2 kg/m3	1.43424 ± 0.00061	1494.5 ± 1.6	7.57 ± 0.31
338.15 K	1085.2 ± 2 kg/m3	–	–	6.561 ± 0.27
343.15 K	1081.5 ± 2 kg/m3 and 1080 ± 2 kg/m3	1.43105 ± 0.00061	1470.1 ± 1.6	5.718 ± 0.23
348.15 K	1077.8 ± 2 kg/m3	–	–	5.019 ± 0.2
353.15 K	1074.1 ± 2 kg/m3	1.42786 ± 0.00061	–	4.429 ± 0.18
358.15 K	1070.3 ± 2 kg/m3	–	–	3.944 ± 0.16
363.15 K	1066.6 ± 2 kg/m3	–	–	3.527 ± 0.14
368.15 K	1062.8 ± 2 kg/m3	–	–	3.169 ± 0.13
373.15 K	1059 ± 2 kg/m3	–	–	2.871 ± 0.12
